Assays:
[1] = biological target: T1, Ubiquitin carboxyl-terminal hydrolase 8 (Homo sapiens, UniProt P40818); settings: 1 μM
T1 sequence (P40818 1-1118): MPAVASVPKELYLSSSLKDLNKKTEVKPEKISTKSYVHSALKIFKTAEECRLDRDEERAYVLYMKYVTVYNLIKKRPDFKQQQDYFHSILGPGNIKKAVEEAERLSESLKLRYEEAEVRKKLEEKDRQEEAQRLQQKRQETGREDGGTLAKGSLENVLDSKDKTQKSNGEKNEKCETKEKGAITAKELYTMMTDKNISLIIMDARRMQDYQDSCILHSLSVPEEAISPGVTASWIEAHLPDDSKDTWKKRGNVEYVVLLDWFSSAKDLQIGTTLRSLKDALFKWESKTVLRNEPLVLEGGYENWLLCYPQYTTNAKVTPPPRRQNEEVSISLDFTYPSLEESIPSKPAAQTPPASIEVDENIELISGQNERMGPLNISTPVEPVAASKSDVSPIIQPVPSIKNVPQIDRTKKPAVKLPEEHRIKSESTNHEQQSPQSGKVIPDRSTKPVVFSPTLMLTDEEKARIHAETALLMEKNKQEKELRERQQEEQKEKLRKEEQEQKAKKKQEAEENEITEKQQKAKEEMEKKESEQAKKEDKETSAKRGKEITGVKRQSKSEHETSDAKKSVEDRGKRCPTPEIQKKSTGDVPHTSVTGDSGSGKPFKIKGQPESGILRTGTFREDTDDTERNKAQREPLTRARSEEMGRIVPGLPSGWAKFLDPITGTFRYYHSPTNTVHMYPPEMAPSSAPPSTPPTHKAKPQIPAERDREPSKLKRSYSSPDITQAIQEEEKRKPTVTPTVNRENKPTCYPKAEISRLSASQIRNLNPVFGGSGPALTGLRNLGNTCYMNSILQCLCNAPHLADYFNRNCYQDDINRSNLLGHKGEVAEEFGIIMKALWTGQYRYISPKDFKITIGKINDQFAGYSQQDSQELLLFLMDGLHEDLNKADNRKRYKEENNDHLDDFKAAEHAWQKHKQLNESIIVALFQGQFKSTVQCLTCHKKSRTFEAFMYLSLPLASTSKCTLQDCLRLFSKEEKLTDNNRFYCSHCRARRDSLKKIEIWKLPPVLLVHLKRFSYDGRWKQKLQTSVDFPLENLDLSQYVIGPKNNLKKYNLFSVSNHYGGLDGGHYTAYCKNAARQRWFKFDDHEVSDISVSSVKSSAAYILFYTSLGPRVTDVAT

[2] = biological target: Ubiquitin carboxyl-terminal hydrolase 7 (Homo sapiens, UniProt Q93009); settings: 1 μM
Chain of Ubiquitin carboxyl-terminal hydrolase 7 (Q93009 whole entry): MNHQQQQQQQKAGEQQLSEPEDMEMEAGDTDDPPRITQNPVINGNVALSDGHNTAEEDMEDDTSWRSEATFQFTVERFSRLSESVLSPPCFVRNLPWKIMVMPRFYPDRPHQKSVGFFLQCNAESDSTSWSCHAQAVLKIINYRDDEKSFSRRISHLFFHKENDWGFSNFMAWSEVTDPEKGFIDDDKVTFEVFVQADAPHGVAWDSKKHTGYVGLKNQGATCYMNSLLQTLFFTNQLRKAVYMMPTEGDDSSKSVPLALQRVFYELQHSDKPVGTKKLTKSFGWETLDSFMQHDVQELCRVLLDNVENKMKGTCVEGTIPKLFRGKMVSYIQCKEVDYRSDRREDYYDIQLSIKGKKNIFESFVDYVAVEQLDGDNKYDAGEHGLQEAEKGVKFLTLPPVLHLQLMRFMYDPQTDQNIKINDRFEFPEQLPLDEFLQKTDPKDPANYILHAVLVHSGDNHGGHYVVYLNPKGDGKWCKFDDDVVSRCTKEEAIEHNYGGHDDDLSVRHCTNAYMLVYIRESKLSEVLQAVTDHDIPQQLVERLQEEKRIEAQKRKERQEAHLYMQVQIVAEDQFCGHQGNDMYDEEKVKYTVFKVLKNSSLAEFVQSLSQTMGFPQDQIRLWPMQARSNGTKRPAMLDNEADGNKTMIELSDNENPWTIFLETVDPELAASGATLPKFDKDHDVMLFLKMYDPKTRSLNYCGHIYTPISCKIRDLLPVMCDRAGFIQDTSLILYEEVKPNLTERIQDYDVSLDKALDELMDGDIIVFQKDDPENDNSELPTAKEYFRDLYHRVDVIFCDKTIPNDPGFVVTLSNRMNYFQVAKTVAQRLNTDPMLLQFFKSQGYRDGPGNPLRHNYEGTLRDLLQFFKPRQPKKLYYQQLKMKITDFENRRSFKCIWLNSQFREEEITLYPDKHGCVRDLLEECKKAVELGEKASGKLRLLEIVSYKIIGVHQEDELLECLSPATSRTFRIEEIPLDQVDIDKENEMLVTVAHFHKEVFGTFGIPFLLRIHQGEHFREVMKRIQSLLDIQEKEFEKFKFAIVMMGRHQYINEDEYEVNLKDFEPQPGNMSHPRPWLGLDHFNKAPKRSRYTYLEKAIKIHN

[3] = biological target: T2, Ubiquitin carboxyl-terminal hydrolase 5 (Homo sapiens, UniProt P45974); settings: 1 μM
T2 sequence (P45974 1-858): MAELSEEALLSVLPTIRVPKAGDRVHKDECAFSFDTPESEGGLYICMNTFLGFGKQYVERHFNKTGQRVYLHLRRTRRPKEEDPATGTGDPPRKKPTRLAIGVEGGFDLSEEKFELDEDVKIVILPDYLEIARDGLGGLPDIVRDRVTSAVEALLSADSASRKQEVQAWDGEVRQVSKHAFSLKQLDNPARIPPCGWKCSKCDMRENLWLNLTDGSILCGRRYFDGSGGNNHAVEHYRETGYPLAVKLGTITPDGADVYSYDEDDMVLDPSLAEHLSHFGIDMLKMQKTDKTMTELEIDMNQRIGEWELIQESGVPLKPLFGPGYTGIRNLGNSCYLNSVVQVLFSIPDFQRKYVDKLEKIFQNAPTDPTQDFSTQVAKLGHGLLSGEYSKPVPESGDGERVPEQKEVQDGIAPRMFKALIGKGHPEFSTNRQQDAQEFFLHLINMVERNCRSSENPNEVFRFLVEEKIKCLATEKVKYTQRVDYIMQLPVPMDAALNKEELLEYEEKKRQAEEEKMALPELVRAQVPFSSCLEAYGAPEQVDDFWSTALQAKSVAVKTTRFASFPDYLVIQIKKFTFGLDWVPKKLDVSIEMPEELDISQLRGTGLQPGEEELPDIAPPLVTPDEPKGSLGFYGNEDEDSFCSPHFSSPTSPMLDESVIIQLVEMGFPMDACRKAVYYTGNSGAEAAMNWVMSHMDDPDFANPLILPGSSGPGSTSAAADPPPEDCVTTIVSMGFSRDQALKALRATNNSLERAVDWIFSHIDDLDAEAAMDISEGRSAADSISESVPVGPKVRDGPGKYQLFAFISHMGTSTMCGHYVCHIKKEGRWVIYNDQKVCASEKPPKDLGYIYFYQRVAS

Deubiquitinase OTUD6B = biological target: T3, Deubiquitinase OTUD6B (Homo sapiens, UniProt Q8N6M0); settings: 1 μM
T3 sequence (Q8N6M0 1-293): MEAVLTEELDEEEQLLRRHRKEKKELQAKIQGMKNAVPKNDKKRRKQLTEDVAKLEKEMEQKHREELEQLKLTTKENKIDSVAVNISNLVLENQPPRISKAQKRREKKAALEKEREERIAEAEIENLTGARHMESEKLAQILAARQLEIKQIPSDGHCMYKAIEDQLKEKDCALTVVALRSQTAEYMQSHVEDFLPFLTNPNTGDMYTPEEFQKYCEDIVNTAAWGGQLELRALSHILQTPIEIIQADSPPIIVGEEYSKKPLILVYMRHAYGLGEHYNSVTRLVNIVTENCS

Ataxin3 = Ataxin3 (Homo sapiens, UniProt P54252); settings: 10 μM
Chain of Ataxin3 (P54252 whole entry, species assumed): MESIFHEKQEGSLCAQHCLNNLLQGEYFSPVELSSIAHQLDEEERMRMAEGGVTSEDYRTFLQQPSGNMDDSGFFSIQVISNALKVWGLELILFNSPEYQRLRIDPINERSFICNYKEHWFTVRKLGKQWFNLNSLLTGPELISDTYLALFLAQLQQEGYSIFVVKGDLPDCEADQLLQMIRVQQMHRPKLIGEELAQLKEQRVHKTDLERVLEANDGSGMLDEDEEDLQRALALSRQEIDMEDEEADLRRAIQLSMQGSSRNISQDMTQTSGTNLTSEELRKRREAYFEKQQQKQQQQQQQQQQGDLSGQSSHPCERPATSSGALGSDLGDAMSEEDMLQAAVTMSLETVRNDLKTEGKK

[4] = biological target: Ubiquitin carboxyl-terminal hydrolase 14 (Homo sapiens, UniProt P54578); settings: 100 nM
Chain of Ubiquitin carboxyl-terminal hydrolase 14 (P54578 whole entry): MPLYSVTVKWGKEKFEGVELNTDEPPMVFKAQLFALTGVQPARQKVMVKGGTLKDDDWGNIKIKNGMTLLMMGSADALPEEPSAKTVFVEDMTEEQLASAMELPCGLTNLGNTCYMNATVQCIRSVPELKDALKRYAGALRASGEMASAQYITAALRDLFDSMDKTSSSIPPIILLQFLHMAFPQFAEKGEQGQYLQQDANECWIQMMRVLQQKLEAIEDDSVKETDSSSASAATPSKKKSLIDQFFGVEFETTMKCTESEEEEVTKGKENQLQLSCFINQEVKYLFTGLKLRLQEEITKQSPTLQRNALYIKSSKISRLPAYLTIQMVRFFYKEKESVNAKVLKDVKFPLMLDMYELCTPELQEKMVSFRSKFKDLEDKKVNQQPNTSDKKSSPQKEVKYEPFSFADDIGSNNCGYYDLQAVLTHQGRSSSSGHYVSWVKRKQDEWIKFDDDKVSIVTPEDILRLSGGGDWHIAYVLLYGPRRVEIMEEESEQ

[5] = biological target: T4, Ubiquitin carboxy-terminal hydrolase L1 (Homo sapiens, UniProt P09936); settings: 100 nM
T4 sequence (P09936 1-223): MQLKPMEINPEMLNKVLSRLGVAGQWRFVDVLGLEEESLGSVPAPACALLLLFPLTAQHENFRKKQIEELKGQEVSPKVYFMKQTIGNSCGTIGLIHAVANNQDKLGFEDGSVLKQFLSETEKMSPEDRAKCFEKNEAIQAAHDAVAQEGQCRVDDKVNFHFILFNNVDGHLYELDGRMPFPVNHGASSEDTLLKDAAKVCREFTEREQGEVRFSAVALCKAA

[6] = biological target: T5, Ubiquitin carboxyl-terminal hydrolase 2 (Homo sapiens, UniProt O75604); settings: 1 μM
T5 sequence (O75604 1-605): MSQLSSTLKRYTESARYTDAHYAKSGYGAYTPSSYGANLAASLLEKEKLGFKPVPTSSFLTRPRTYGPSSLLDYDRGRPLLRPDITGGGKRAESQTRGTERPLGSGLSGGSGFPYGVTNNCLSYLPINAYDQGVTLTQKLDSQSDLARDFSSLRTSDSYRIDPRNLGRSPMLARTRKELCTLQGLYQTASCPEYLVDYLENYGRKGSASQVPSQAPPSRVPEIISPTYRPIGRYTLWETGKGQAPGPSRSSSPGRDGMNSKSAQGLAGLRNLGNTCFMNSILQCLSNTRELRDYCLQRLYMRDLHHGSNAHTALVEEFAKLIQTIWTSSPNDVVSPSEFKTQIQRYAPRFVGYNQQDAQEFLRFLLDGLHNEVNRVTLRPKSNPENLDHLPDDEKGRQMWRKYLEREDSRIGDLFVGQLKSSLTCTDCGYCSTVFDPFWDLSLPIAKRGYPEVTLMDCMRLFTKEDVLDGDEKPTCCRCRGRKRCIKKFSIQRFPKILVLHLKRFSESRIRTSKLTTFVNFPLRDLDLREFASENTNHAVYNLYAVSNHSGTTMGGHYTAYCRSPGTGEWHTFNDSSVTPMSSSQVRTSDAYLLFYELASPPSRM

[7] = biological target: Ubiquitin carboxyl-terminal hydrolase 10 (Homo sapiens, UniProt Q14694); settings: 1 μM
Chain of Ubiquitin carboxyl-terminal hydrolase 10 (Q14694 whole entry): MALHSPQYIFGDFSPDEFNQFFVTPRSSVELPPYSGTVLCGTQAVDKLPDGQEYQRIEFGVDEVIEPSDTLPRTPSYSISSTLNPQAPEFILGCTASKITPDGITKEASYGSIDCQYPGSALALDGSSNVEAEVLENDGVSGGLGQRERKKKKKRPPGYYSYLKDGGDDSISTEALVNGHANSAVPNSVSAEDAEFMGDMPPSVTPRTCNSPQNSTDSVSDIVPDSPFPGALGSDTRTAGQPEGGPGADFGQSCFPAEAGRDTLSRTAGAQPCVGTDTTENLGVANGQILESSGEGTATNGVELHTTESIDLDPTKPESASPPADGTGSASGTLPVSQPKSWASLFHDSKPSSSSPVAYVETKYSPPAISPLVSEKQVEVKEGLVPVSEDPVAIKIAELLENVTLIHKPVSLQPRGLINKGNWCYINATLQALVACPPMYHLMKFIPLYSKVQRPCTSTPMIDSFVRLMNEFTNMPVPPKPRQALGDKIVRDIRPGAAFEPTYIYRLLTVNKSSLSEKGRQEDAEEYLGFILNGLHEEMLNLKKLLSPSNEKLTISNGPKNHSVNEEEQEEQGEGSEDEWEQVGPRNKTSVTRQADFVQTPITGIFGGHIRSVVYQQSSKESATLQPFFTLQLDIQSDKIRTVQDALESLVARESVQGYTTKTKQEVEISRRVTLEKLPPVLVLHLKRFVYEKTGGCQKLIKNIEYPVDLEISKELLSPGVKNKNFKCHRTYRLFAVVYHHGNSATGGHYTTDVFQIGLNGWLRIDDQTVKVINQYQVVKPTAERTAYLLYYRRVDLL

[8] = biological target: T6, Ubiquitin carboxy-terminal hydrolase L3 (Homo sapiens, UniProt P15374); settings: 10 nM
T6 sequence (P15374 1-230): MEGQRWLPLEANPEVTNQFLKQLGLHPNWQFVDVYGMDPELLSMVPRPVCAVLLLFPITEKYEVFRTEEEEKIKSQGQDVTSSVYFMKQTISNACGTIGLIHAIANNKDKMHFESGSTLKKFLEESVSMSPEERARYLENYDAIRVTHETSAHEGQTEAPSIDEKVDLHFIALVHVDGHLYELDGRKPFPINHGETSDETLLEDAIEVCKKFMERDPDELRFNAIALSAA

DPP7 = DPP7 (Homo sapiens, UniProt Q9UHL4); settings: 200 μM
DPP8 = DPP8 (Homo sapiens, UniProt Q6V1X1); settings: 200 μM
Chain of DPP8 (Q6V1X1 whole entry, species assumed): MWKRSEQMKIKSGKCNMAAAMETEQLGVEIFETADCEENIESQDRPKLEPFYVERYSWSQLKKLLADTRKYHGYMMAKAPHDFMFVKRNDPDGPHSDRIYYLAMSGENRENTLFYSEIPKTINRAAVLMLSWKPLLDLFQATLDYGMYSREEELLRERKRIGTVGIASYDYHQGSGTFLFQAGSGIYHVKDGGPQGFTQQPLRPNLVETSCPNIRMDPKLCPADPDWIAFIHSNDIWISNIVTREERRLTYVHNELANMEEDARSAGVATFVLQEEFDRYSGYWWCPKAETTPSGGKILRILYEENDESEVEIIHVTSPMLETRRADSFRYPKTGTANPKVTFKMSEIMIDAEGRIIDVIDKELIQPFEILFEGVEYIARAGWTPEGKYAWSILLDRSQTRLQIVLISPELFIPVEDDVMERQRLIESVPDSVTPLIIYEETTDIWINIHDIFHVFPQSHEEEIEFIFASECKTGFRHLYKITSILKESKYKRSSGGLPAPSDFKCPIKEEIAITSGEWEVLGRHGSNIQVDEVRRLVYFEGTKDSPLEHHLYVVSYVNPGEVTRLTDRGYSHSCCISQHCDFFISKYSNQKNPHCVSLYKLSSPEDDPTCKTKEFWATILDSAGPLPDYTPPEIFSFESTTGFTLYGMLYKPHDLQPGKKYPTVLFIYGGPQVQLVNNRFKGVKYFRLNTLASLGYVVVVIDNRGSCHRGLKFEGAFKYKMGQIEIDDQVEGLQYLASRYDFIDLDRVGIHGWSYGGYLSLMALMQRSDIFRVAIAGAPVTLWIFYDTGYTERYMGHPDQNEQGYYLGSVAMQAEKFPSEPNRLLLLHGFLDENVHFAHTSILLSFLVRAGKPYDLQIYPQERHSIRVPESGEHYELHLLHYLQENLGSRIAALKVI

[9] = tested on: serine protease NS3 (a.a. 3-181) from Hepatitis C virus genotype 1b; settings: Reference, 100 nM
[10] = tested on: serine protease NS3 (a.a. 3-181) from Hepatitis C virus genotype 1a (mutant D168V); settings: Reference, 100 nM
[11] = biological target: serine protease NS3 (a.a. 3-181) from Hepatitis C virus genotype 2a (Hepatitis C virus genotype 2a, UniProt Q99IB8); settings: 100 nM
Chain of serine protease NS3 (a.a. 3-181) from Hepatitis C virus genotype 2a (Q99IB8 1033-1211 limits assumed, other chains not shown): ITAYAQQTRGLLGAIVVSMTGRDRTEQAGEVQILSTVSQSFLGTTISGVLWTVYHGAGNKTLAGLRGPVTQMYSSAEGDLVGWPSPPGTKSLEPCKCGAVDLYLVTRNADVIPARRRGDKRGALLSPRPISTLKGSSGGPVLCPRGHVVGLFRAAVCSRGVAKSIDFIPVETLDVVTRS

FAP = FAP (Homo sapiens, UniProt Q12884); settings: 100 nM
Chain of FAP (Q12884 whole entry): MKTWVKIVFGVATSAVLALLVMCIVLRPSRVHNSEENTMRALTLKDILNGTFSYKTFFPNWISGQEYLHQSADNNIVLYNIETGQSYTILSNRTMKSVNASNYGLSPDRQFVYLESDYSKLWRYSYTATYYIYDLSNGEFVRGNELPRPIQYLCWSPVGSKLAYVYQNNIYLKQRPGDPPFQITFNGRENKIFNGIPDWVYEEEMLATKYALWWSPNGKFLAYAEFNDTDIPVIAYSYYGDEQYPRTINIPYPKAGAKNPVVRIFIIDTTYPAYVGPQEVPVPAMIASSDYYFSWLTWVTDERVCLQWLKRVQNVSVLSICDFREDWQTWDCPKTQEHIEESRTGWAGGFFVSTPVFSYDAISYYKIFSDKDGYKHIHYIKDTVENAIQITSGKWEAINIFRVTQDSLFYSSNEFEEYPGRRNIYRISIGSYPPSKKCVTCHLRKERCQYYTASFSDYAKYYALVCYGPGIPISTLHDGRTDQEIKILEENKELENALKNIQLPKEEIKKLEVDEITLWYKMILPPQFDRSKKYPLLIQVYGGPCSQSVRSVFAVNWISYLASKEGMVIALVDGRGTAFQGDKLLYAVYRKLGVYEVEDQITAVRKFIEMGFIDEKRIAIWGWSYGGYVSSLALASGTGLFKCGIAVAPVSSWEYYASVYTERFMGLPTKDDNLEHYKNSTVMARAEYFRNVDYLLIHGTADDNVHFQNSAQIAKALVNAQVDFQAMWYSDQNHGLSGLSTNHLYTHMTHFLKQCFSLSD

Compound: Ub-Aldehyde
- Percentage inhibition (%), Reference [1]: 73%
- Percentage inhibition (%), Reference [2]: 95%
- Percentage inhibition (%), Reference [3]: 84%
- Percentage inhibition (%), Reference (Deubiquitinase OTUD6B): 97%
- Percentage inhibition (%), Reference (Ataxin3): 77%
- Percentage inhibition (%), Reference [4]: 96%
- Percentage inhibition (%), Reference [5]: 92%
- Percentage inhibition (%), Reference [6]: 91%
- Percentage inhibition (%), Reference [7]: 82%
- Percentage inhibition (%), Reference [8]: 95%

Compound: N#Cc1ccc(NCCNCC(=O)N2N=CCC2C#N)nc1 (stereo not shown) [KR62436]
- Percentage inhibition (%), Reference (DPP7): 83%
- Percentage inhibition (%), Reference (DPP8): 96%

Compound: CC(C)(C)OC(=O)N[C@H]1CCCCC/C=C\[C@@H]2C[C@@]2(C(=O)NS(=O)(=O)C2CC2)NC(=O)[C@@H]2C[C@@H](OC(=O)N3Cc4cccc(F)c4C3)CN2C1=O [Denoprevir, reference compound]
- Percentage inhibition (%), Reference [9]: 100%
- Percentage inhibition (%), Reference [10]: 94%
- Percentage inhibition (%), Reference [11]: 98%

Compound: N#C[C@@H]1CC(F)(F)CN1C(=O)CNC(=O)c1ccnc2ccccc12 [SP-13786]
- Percentage inhibition (%), Reference (FAP): 100%
